The EC50 is the concentration that produces a half-maximal response.

This test relates to HBV. Kind of test: HBV infection of HepG2-NTCP cells, HBeAg AlphaLISA readout. In kind it is cell-based. Conditions: Hepatitis B virus, 192 h, 2000 GE/cell, HBeAg in supernatant at day 8 post infection, 50% reduction relative to DMSO controls, read-out: Cellular EC50. The method, then: HepG2-NTCP A3 cells were maintained in DMEM media supplemented with GlutaMAX™, 10% fetal bovine serum, 1% penicillin/streptomycin, and 5 ug/mL puromycin at 37° C. in a humidified atmosphere with 5% CO2 in a collagen-coated tissue culture flask.
HepG2-NTCP cells were seeded in 384 well plate containing 16,000 cells/well two days prior to the infection. On the day of infection, compounds were 3-fold serially diluted in DMSO and pre-incubated with HepG2-NTCP cells for two hours before purified HBV addition. HBV infection was carried out at 2000 GE/cell with 4% PEG, and the final concentration of DMSO is 0.5%. On day one post infection, HBV-containing media was aspirated, cells were washed once with PBS and then maintained in 2.5% DMSO containing media for the remainder of the assay.
Supernatants from infected HepG2-NTCP cells were collected at day 8 post infection, and the amount of viral antigen HBeAg was measured by HBeAg AlphaLISA detection kit (PerkinElmer) following the manufacturer's recommended protocol. Irrespective of readout, compound concentrations that reduce viral product accumulation in supernatants by 50% relative to DMSO controls (EC50) are reported. EC50 ranges are as follows: A<0.1 µM; B 0.1-1 µM; C>1 µM.
As to `CN1[C@H](C2CC2)CN(c2ccccc2)c2cc3c(cc2S1(=O)=O)-c1cc(C(=O)O)ccc1CO3` [Example 2, (R)-10-cyclopropyl-11-methyl-8-phenyl-8,9,10,11-tetrahydro-5H-benzo[3,4]chromeno[7,6-f][1,2,5]thiadiazepine-2-carboxylic acid 12,12-dioxide], the EC50 was in the range of 100 to 1000 nM. As to `CN1[C@H](CC2CC2)CN(c2ccccc2)c2cc3c(cc2S1(=O)=O)-c1cc(C(=O)O)ccc1CO3` [Example 3], the 50% effective concentration (EC50) lay in the range of 100 to 1000 nM. For `CC(C)C[C@@H]1CN(c2ccccc2)c2cc3c(cc2S(=O)(=O)N1C)-c1cc(C(=O)O)ccc1CO3` [Example 4, (R)-10-isobutyl-11-methyl-8-phenyl-8,9,10,11-tetrahydro-5H-benzo[3,4]chromeno[7,6-f][1,2,5]thiadiazepine-2-carboxylic acid 12,12-dioxide], the EC50 is less than 100 nM. Turning to `CN1[C@H](CC(C)(C)C)CN(c2ccccc2)c2cc3c(cc2S1(=O)=O)-c1cc(C(=O)O)ccc1CO3` [Example 5], the EC50 is less than 100 nM.

On to `CC(C)[C@@H]1CN(c2ccccc2)c2cc3c(cc2S(=O)(=O)N1C)-c1cc(C(=O)O)ccc1CO3` [Example 6], for which the EC50 was 100 to 1000 nM. Turning to `CCCC[C@@H]1CN(c2ccccc2)c2cc3c(cc2S(=O)(=O)N1C)-c1cc(C(=O)O)ccc1CO3` [Example 7, (R)-10-butyl-11-methyl-8-phenyl-8,9,10,11-tetrahydro-5H-benzo[3,4]chromeno[7,6-f][1,2,5]thiadiazepine-2-carboxylic acid 12,12-dioxide], the 50% effective concentration (EC50) is less than 100 nM. Next, `CN1[C@H](C2CCCCC2)CN(c2ccccc2)c2cc3c(cc2S1(=O)=O)-c1cc(C(=O)O)ccc1CO3` [Example 8]: less than 100 nM; `CCCC[C@@H]1CN(c2ccccc2)c2cc3c(cc2S(=O)(=O)N1C)-c1cccc(C(=O)O)c1CO3` [Example 9]: more than 1000 nM. As for `CCCC[C@@H]1CN(c2ccccc2)c2cc3c(cc2S(=O)(=O)N1C)-c1cc(C(=O)O)c(F)cc1CO3` [Example 10, (R)-10-butyl-3-fluoro-11-methyl-8-phenyl-8,9,10,11-tetrahydro-5H-benzo[3,4]chromeno[7,6-f][1,2,5]thiadiazepine-2-carboxylic acid 12,12-dioxide], the EC50 was less than 100 nM. Under `CCCC[C@@H]1CN(c2ccccc2)c2cc3c(cc2S(=O)(=O)N1C)-c1nc(C(=O)O)ccc1CO3` [Example 11, (R)-10-butyl-11-methyl-8-phenyl-8,9,10,11-tetrahydro-5H-pyrido[3′,2′:3,4]chromeno[7,6-f][1,2,5]thiadiazepine-2-carboxylic acid 12,12-dioxide] stands more than 1000 nM. With `CC(C)C[C@@H]1CN(c2ccccc2)c2cc3c(cc2S(=O)(=O)N1C)-c1cc(C(=O)O)c(F)c(F)c1CO3` [Example 12, (R)-3,4-difluoro-10-isobutyl-11-methyl-8-phenyl-8,9,10,11-tetrahydro-5H-benzo[3,4]chromeno[7,6-f][1,2,5]thiadiazepine-2-carboxylic acid 12,12-dioxide], the concentration giving a half-maximal response (EC50) was less than 100 nM. Take `CN1[C@H](C2CCC2)CN(c2ccccc2)c2cc3c(cc2S1(=O)=O)-c1cc(C(=O)O)c(F)c(F)c1CO3` [Example 13]: the EC50 is less than 100 nM.

`CN1[C@H](C2CCCCC2)CN(c2ccccc2)c2cc3c(cc2S1(=O)=O)-c1cc(C(=O)O)c(F)c(F)c1CO3` [Example 14]: the EC50 was less than 100 nM. `CCCC[C@@H]1CN(c2ccccc2)c2cc3c(cc2S(=O)(=O)N1C)-c1cc(C(=O)O)sc1CO3` [Example 15, (R)-9-butyl-10-methyl-7-phenyl-7,8,9,10-tetrahydro-4H-thieno[2′,3′:3,4]chromeno[7,6-f][1,2,5]thiadiazepine-2-carboxylic acid 11,11-dioxide]: the EC50 was less than 100 nM.

With `CN1[C@H](C2CCC2)CN(c2ccccc2)c2cc3c(cc2S1(=O)=O)-c1cc(C(=O)O)sc1CO3` [Example 16], the EC50 is less than 100 nM. Regarding `CCCC[C@@H]1CN(c2ccccc2)c2cc3c(cc2S(=O)(=O)N1C)-c1cc(C(=O)O)c(F)c(F)c1CO3` [Example 17], the EC50 was less than 100 nM. Turning to `CC(C)C[C@@H]1CN(c2ccccc2)c2cc3c(cc2S(=O)(=O)N1C)-c1cc(C(=O)O)sc1CO3` [Example 18, (R)-9-isobutyl-10-methyl-7-phenyl-7,8,9,10-tetrahydro-4H-thieno[2′,3′:3,4]chromeno[7,6-f][1,2,5]thiadiazepine-2-carboxylic acid 11,11-dioxide], the EC50 was less than 100 nM. As to `CN1[C@H](C2CCCCC2)CN(c2ccccc2)c2cc3c(cc2S1(=O)=O)-c1cc(C(=O)O)sc1CO3` [Example 19], the EC50 is less than 100 nM. On to `CCCC[C@@H]1CN(c2ccccc2)c2cc3c(cc2S(=O)(=O)N1C)-c1cc(C(=O)O)ccc1[C@H](C(F)(F)F)O3` [Example 21a, (5R,10R)-10-butyl-11-methyl-8-phenyl-5-(trifluoromethyl)-8,9,10,11-tetrahydro-5H-benzo[3,4]chromeno[7,6-f][1,2,5]thiadiazepine-2-carboxylic acid 12,12-dioxide], for which the EC50 lay in the range of 100 to 1000 nM.

In the case of `CCCC[C@@H]1CN(c2ccccc2)c2cc3c(cc2S(=O)(=O)N1C)-c1cc(C(=O)O)ccc1[C@@H](C(F)(F)F)O3` [Example 21b, (5S,10R)-10-butyl-11-methyl-8-phenyl-5-(trifluoromethyl)-8,9,10,11-tetrahydro-5H-benzo[3,4]chromeno[7,6-f][1,2,5]thiadiazepine-2-carboxylic acid 12,12-dioxide], the EC50 lay within 100 to 1000 nM. In the case of `CCCC[C@@H]1CN(c2ccccc2)c2cc3c(cc2S(=O)(=O)N1C)-c1cc(C(=O)O)ccc1[C@H](C(C)(C)C)O3` [Example 22a, (5S,10R)-5-(tert-butyl)-10-butyl-11-methyl-8-phenyl-8,9,10,11-tetrahydro-5H-benzo[3,4]chromeno[7,6-f][1,2,5]thiadiazepine-2-carboxylic acid 12,12-dioxide], the EC50 is more than 1000 nM. Under `CCCC[C@@H]1CN(c2ccccc2)c2cc3c(cc2S(=O)(=O)N1C)-c1cc(C(=O)O)ccc1[C@@H](C(C)(C)C)O3` [Example 22b, (5R,10R)-5-(tert-butyl)-10-butyl-11-methyl-8-phenyl-8,9,10,11-tetrahydro-5H-benzo[3,4]chromeno[7,6-f][1,2,5]thiadiazepine-2-carboxylic acid 12,12-dioxide] stands more than 1000 nM. Take `CCCC[C@@H]1CN(c2ccccc2)c2cc3c(cc2S(=O)(=O)N1C)-c1cc(C(=O)O)ccc1C(C)(C)O3` [Example 23, (R)-10-butyl-5,5,11-trimethyl-8-phenyl-8,9,10,11-tetrahydro-5H-benzo[3,4]chromeno[7,6-f][1,2,5]thiadiazepine-2-carboxylic acid 12,12-dioxide]: the EC50 fell in the range of 100 to 1000 nM. Next, `CCCCC1CN(c2ccccc2)c2cc3c(cc2S(=O)(=O)N1C)-c1cc(C(=O)O)ccc1OC3` (centres unmarked) [Example 24, 10-butyl-11-methyl-8-phenyl-8,9,10,11-tetrahydro-6H-benzo[3,4]isochromeno[7,6-f][1,2,5]thiadiazepine-2-carboxylic acid 12,12-dioxide]: 100 to 1000 nM; `CN1[C@H](C2CCCCC2)CNc2cc3c(cc2S1(=O)=O)-c1cc(C(=O)O)ccc1CO3` [Example 25, (R)-10-cyclohexyl-11-methyl-8,9,10,11-tetrahydro-5H-benzo[3,4]chromeno[7,6-f][1,2,5]thiadiazepine-2-carboxylic acid 12,12-dioxide]: more than 1000 nM; `CCCC[C@@H]1CN(c2ccccc2)c2cc3c(cc2S(=O)(=O)N1C)-c1cc(C(=O)O)ccc1CN3C` [Example 27, (R)-10-butyl-6,11-dimethyl-8-phenyl-5,6,8,9,10,11-hexahydro-[1,2,5]thiadiazepino[7,6-b]phenanthridine-2-carboxylic acid 12,12-dioxide]: less than 100 nM.

Take `CCCC[C@@H]1CN(c2ccccc2)c2cc3c(cc2S(=O)(=O)N1C)-c1cc(C(=O)O)ccc1CN3C(C)C` [Example 28]: the EC50 fell in the range of 100 to 1000 nM. Regarding `CCCC[C@@H]1CN(c2ccccc2)c2cc3c(cc2S(=O)(=O)N1C)-c1cc(C(=O)O)ccc1CN3` [Example 29], the EC50 is 100 to 1000 nM. Under `CN1[C@H](C2CCCCC2)CN(c2ccccc2)c2cc3c(cc2S1(=O)=O)-c1cc(C(=O)O)ccc1CN3c1ccccc1F` [Example 30] stands more than 1000 nM; under `CN1Cc2ccc(C(=O)O)cc2-c2cc3c(cc21)NC[C@@H](C1CCCCC1)N(C)S3(=O)=O` [Example 31, (R)-10-cyclohexyl-6,11-dimethyl-5,6,8,9,10,11-hexahydro-[1,2,5]thiadiazepino[7,6-b]phenanthridine-2-carboxylic acid 12,12-dioxide], more than 1000 nM. Regarding `CN1[C@H](C2CCCCC2)CNc2cc3c(cc2S1(=O)=O)-c1cc(C(=O)O)ccc1CN3c1ccccc1F` [Example 32], the EC50 is 100 to 1000 nM.

Consider `CCCC[C@@H]1CN(c2ccccc2)c2cc3c(cc2S(=O)(=O)N1C)-c1cc(C(=O)O)ccc1C1(CC1)N3` [Example 33, (R)-10′-butyl-11′-methyl-8′-phenyl-8′,9′,10′,11′-tetrahydro-6′H-spiro[cyclopropane-1,5′-[1,2,5]thiadiazepino[7,6-b]phenanthridine]-2′-carboxylic acid 12′,12′-dioxide], for which the EC50 was more than 1000 nM.

For the origin of these results see patent US20240325409A1, “Fused Heterotetracyclic Antiviral Agents” (Enanta Pharmaceuticals, Inc., priority 2023, published 2024).
